Reference: article PMC2895808 (Vaccine, 2010)
Ends that are not written are not given here.

What was measured:
Assay in all cases: biochemical
HLA A*0202 = HLA A*0202 (Homo sapiens, UniProt P04439, D140Y/D185E/D98H/E176V/E277Q/G131W/G231S/I119L/I121R/I166T/I218V/L180W/L300P/L318F/N151K/N90K/P208A/P217A/Q67R/Q86G/Q94H/R138H/R169H/T345S)
HLA A*6802 = HLA A*6802 (Homo sapiens, UniProt P04439, A269V/D140Y/D185E/E176V/E277Q/E87N/F33Y/G231S/I121R/I166T/I218V/L180W/L300P/L318F/N151K/P208A/P217A/Q86R/R138H/R169H/S129P/T345S/V36M)
HLA A*0203 = HLA A*0203 (Homo sapiens, UniProt P04439, A173T/D140Y/D185E/D98H/E277Q/G131W/G231S/I119V/I121R/I166T/I218V/L180W/L300P/L318F/N151K/N90K/P208A/P217A/Q86G/Q94H/R138H/R169H/T345S)
HLA B*0702 = HLA B*0702 (Homo sapiens, UniProt P01889)
HLA B*4201 = HLA B*4201 (Homo sapiens, UniProt P01889, D138N/E176V/E187T/K202T/R180D)
HLA B*5401 = HLA B*5401 (Homo sapiens, UniProt P01889, A329T/C349S/D138N/D201E/E176V/E187T/E204Q/E69G/I76V/K202T/L119W/R155S/R180L/S121T/S35A/S48A/V127L/V306I/V36M/Y140L)
HLA B*5101 = HLA B*5101 (Homo sapiens, UniProt P01889, A329T/A93T/A95T/C349S/D138N/D201E/D98Y/E187L/E204Q/E69T/G107R/I218V/K202T/L105A/L119W/N104I/Q94N/R106L/R155S/R180L/S101N/S121T/S35A/S48A/V306I/V36M/Y195H/Y91F)
HLA B*3503 = HLA B*3503 (Homo sapiens, UniProt P01889, A329T/A93T/A95T/C349S/D201E/D98Y/E176V/E187L/E204Q/E69T/I218V/K202T/L119I/Q94N/R155S/R180L/S121R/S35A/S48A/T118I/V127L/V306I/V36M/Y140F/Y91F)
HLA B*3501 = HLA B*3501 (Homo sapiens, UniProt P01889, A329T/A93T/A95T/C349S/D201E/D98Y/E176V/E187L/E204Q/E69T/I218V/K202T/L119I/Q94N/R155S/R180L/S121R/S35A/S48A/T118I/V127L/V306I/V36M/Y140S/Y91F)
HLA B*5301 = HLA B*5301 (Homo sapiens, UniProt P01889, A329T/A93T/A95T/C349S/D201E/D98Y/E176V/E187L/E204Q/E69T/G107R/I218V/K202T/L105A/L119I/N104I/Q94N/R106L/R155S/R180L/S101N/S121R/S35A/S48A/T118I/V127L/V306I/V36M/Y140S/Y91F)

Row | Compound | IC50 (HLA A*0202) [nM] | IC50 (HLA A*6802) [nM] | IC50 (HLA A*0203) [nM] | IC50 (HLA B*0702) [nM] | IC50 (HLA B*4201) [nM] | IC50 (HLA B*5401) [nM] | IC50 (HLA B*5101) [nM] | IC50 (HLA B*3503) [nM] | IC50 (HLA B*3501) [nM] | IC50 (HLA B*5301) [nM]
1 | CSCC[C@H](NC(=O)[C@H](Cc1ccccc1)NC(=O)[C@@H](NC(=O)[C@@H](NC(=O)[C@H](Cc1ccccc1)NC(=O)[C@@H](NC(=O)[C@@H](N)C(C)C)C(C)C)C(C)C)C(C)C)C(=O)NCC(=O)N[C@H](C(=O)O)C(C)C [Peptide 7103.0001] | 3450 | 39 |  |  |  |  |  |  |  | 
2 | CC(C)C[C@H](NC(=O)[C@H](Cc1ccccc1)NC(=O)[C@@H](NC(=O)[C@@H](NC(=O)[C@H](Cc1ccccc1)NC(=O)[C@@H]1CCCN1C(=O)[C@@H](NC(=O)[C@H](CC(C)C)NC(=O)[C@@H](N)Cc1ccccc1)C(C)C)C(C)C)C(C)C)C(=O)O [Peptide 7103.0003] | < 0.1 | 1.5 | 0.11 |  |  |  |  |  |  | 
3 | HPGSVNEFDF [HF10] |  |  |  | 3620 | 877 | 854 | 14700 | 11500 | 2090 | 5520
